Laboratory results reported in PubChem BioAssay AID2060618 (Molecular Pharmacology Branch, DTP, NCI, 2025).

Tested on: 454973-116-R2-J3-PDC spheroids, percent test/control viability
Assay: Anticancer human tumor 454973-116-R2-J3-PDC patient-derived pancreatic carcinoma cell line growth inhibition [CLK]
Conditions: spheroids with HUVEC and MSC; for IC50: curve of first compound; for viability, T/C: stronger effect = lower value
Source text: A high-throughput screen of multi-cell type tumor spheroids was designed to identify active combinations of […] and targeted small molecules. Complex spheroids include a stromal component modeled by human endothelial cells (HUVEC) and fibroblasts modeled by human mesenchymal stem cells (MSCs). The concentration ranges selected for each drug and investigational agent were based upon clinically achievable concentrations if the clinical Cmax of the agent was known.
Compounds. The drugs and investigational agents: cirtuvivint (SM08502; NSC835563), CC-671 (NSC850746), vemurafenib (NSC761431), tapotoclax (NSC804041), sotorasib (NSC818433), adagrasib (NSC831453), MRTX-1133 (NSC836407), BAY2416964 (NSC825713), copanlisib (NSC816437), inavolisib (NSC800729), abemaciclib (NSC768073), osimertinib (NSC779217), entinostat (NSC756642), eltanexor (KPT-8602, NSC794443), venetoclax (NSC766270), ceralasertib (NSC777638), bortezomib (NSC756655), olaparib (NSC753686), talazoparib (NSC767125), alisertib (NSC759677), peposertib (NSC802822), gemcitabine (NSC613327), 5-fluorouracil (NSC19893), SN-38 (NSC673596), oxaliplatin (NSC266046), paclitaxel (NSC125973), and doxorubicin (NSC123127), were obtained from the National Cancer Institute (NCI) Developmental Therapeutics Program Chemical Repository. The FDA-approved anticancer drug set is available from the Developmental Therapeutics Program at https://dtp.cancer.gov/organization/dscb/obtaining/available plates.htm. […] The stock solutions were prepared in dimethyl sulfoxide (DMSO, Sigma-Aldrich, St. Louis, MO, cat. D2650), except for the platinum complexes which were prepared in saline (Quality Biological, Gaithersburg, MD, cat. 114-055-101), at 800-fold the tested concentration and stored at -70 degrees C prior to their use. All drugs and investigational agents were tested over a range starting from a high concentration at or near the clinical Cmax and decreasing in half-log increments. If the clinical Cmax for an agent had not been determined, the highest concentration tested was 10 microM.
Cell Culture. All cells were maintained in an incubator at 37 degrees C and 5% CO2 with 95% humidity. The PDC lines were cultured according to standard operating procedures established by the NCI PDMR. Briefly, all PDCs were thawed and cultured in Matrigel-coated flasks prepared with a working solution of 1X Ham's F-12 nutrient mix, without supplementation (Invitrogen, Waltham, MA, cat. 11765054), 100 U/mL penicillin-streptomycin (Invitrogen, cat. 15140122), and 2.5% Matrigel (Corning Inc., Corning, NY, cat. 354248) for the first three passages. The 947758-054-R-J2-PDC line was cultured in 6B/Colon 1A media, which includes advanced DMEM/F-12 (Thermo Fisher Scientific, cat. 12634028), 10 mM HEPES (Thermo Fisher Scientific, cat. 15630080), 1X GlutaMAX supplement (Thermo Fisher Scientific, cat. 35050061), 0.1 mg/mL primocin (InvivoGen, cat. ant-pm-2), 10% defined fetal bovine serum, heat inactivated (HyClone Laboratories Inc., cat. SH30070.03HI), 1.25 mM N-Acetyl-L-cysteine (Sigma-Aldrich, cat. A9165), 10 mM nicotinamide (Sigma-Aldrich, cat. N0636), 1X B-27 supplement (Thermo Fisher Scientific, cat. 17504044), 1X N-2 supplement (Thermo Fisher Scientific, cat. 17502048), and 10 microM Y-27632 dihydrochloride (Tocris Bioscience, cat. 1254). The 876862-298-R-J1-PDC was cultured in 6E media, which includes all 6B/Colon 1A media components plus 50% L-WRN conditioned media (ATCC, cat. CRL-3276), 50 ng/mL recombinant human EGF recombinant protein (hEGF; Thermo Fisher Scientific, cat. PHG0311), 10 ng/mL recombinant human fibroblast growth factor 10 (hGFG-10; PeproTech, cat. 100-26), 1 ng/mL recombinant human fibroblast growth factor 2 (hFGF-2; PeproTech, cat. 100-18B), and 1 µM prostaglandin E2 (PGE2; Tocris, cat. 2296). The 227483-062-R1-J1-PDC line was cultured in Panc media, containing all 6E components except hFGF-2, with the addition of 500 nM SB-431542 (Selleckchem, cat. S1067) and 10 nM gastrin (Tocris, cat. 3006). […]

[1] = second compound 0.0316 µM, first compound 0.0316 µM
[2] = second compound 0.0316 µM, first compound 0.1 µM
[3] = second compound 0.0316 µM, first compound 0.316 µM
[4] = second compound 0.0316 µM, first compound 1 µM
[5] = second compound 0.0316 µM, first compound 3.16 µM
[6] = second compound 0.0316 µM, first compound 10 µM
[7] = second compound 0.1 µM, first compound 0.0316 µM
[8] = second compound 0.1 µM, first compound 0.1 µM
[9] = second compound 0.1 µM, first compound 0.316 µM
[10] = second compound 0.1 µM, first compound 1 µM
[11] = second compound 0.1 µM, first compound 3.16 µM
[12] = second compound 0.1 µM, first compound 10 µM
[13] = second compound 0.316 µM, first compound 0.0316 µM
[14] = second compound 0.316 µM, first compound 0.1 µM
[15] = second compound 0.316 µM, first compound 0.316 µM
[16] = second compound 0.316 µM, first compound 1 µM
[17] = second compound 0.316 µM, first compound 3.16 µM
[18] = second compound 0.316 µM, first compound 10 µM
[19] = second compound 1 µM, first compound 0.0316 µM
[20] = second compound 1 µM, first compound 0.1 µM
[21] = second compound 1 µM, first compound 0.316 µM
[22] = second compound 1 µM, first compound 1 µM
[23] = second compound 1 µM, first compound 3.16 µM
[24] = second compound 1 µM, first compound 10 µM
[25] = second compound 3.16 µM, first compound 0.0316 µM
[26] = second compound 3.16 µM, first compound 0.1 µM
[27] = second compound 3.16 µM, first compound 0.316 µM
[28] = second compound 3.16 µM, first compound 1 µM
[29] = second compound 3.16 µM, first compound 3.16 µM
[30] = second compound 3.16 µM, first compound 10 µM
[31] = second compound 10 µM, first compound 0.0316 µM
[32] = second compound 10 µM, first compound 0.1 µM
[33] = second compound 10 µM, first compound 0.316 µM
[34] = second compound 10 µM, first compound 1 µM
[35] = second compound 10 µM, first compound 3.16 µM
[36] = second compound 10 µM, first compound 10 µM
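Also: spheroids exposed to compounds for 7 days before readout.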

Q: Which results are given for `Nc1ccccc1NC(=O)c1ccc(CNC(=O)OCc2cccnc2)cc1` + CNC(=O)c1ccc(Nc2nc(OC3CCCC3)c3c(-c4ccc5nc(C)oc5c4)c[nH]c3n2)c(OC)c1?
A: IC50 (second compound 0.0316 µM): 1620 nM; IC50 (second compound 0.1 µM): 1660 nM; IC50 (second compound 0.316 µM): < 31.6 nM; IC50 (second compound 1 µM): < 31.6 nM; IC50 (second compound 3.16 µM): < 31.6 nM; IC50 (second compound 10 µM): < 31.6 nM; viability, T/C [1]: 97.2%; viability, T/C [2]: 102%; viability, T/C [3]: 87.2%; viability, T/C [4]: 69.4%; viability, T/C [5]: 25.1%; viability, T/C [6]: 5.57%; viability, T/C [7]: 107%; viability, T/C [8]: 95.9%; viability, T/C [9]: 91.8%; viability, T/C [10]: 69%; viability, T/C [11]: 26.8%; viability, T/C [12]: 6.74%; viability, T/C [13]: 46.9%; viability, T/C [14]: 40.4%; viability, T/C [15]: 42.2%; viability, T/C [16]: 31.3%; viability, T/C [17]: 19%; viability, T/C [18]: 5.37%; viability, T/C [19]: 29.1%; viability, T/C [20]: 27.1%; viability, T/C [21]: 23.6%; viability, T/C [22]: 28.6%; viability, T/C [23]: 16.8%; viability, T/C [24]: 3.41%; viability, T/C [25]: 28.7%; viability, T/C [26]: 30.1%; viability, T/C [27]: 24.4%; viability, T/C [28]: 27.1%; viability, T/C [29]: 17.2%; viability, T/C [30]: 2.74%; viability, T/C [31]: 26.9%; viability, T/C [32]: 24.5%; viability, T/C [33]: 21.1%; viability, T/C [34]: 21.8%; viability, T/C [35]: 16.8%; viability, T/C [36]: 2.21%

Q: `CCCS(=O)(=O)Nc1ccc(F)c(C(=O)c2c[nH]c3ncc(-c4ccc(Cl)cc4)cc23)c1F` + CN1CCN(c2cc(C(=O)Nc3cc4cc(-c5cnn(C)c5)ccc4cn3)ccn2)CC1 was tested. Which IC50 (second compound 0.0316 µM) did it give?
A: 7050 nM

Q: And the IC50 (second compound 0.1 µM)?
A: 5490 nM

Q: What about the IC50 (second compound 0.316 µM) of the same compound?
A: < 31.6 nM

Q: And the IC50 (second compound 1 µM)?
A: < 31.6 nM

Q: What about the IC50 (second compound 3.16 µM) of the same compound?
A: < 31.6 nM

Q: What about the IC50 (second compound 10 µM) of the same compound?
A: < 31.6 nM

Q: What about the viability, T/C [1] of the same compound?
A: 79.2%

Q: And the viability, T/C [2]?
A: 101%

Q: And the viability, T/C [3]?
A: 95.7%

Q: And the viability, T/C [4]?
A: 105%

Q: And the viability, T/C [5]?
A: 107%

Q: And the viability, T/C [6]?
A: 29.3%

Q: What about the viability, T/C [7] of the same compound?
A: 73.9%

Q: And the viability, T/C [8]?
A: 80.6%

Q: What about the viability, T/C [9] of the same compound?
A: 100%

Q: What about the viability, T/C [10] of the same compound?
A: 96.7%

Q: What about the viability, T/C [11] of the same compound?
A: 83.7%

Q: And the viability, T/C [12]?
A: 13.2%

Q: And the viability, T/C [13]?
A: 1.36%

Q: What about the viability, T/C [14] of the same compound?
A: 1.57%

Q: And the viability, T/C [15]?
A: 1.57%

Q: What about the viability, T/C [16] of the same compound?
A: 2.69%

Q: And the viability, T/C [17]?
A: 2.52%

Q: And the viability, T/C [18]?
A: 0.54%

Q: What about the viability, T/C [19] of the same compound?
A: 0.13%

Q: What about the viability, T/C [20] of the same compound?
A: 0.17%

Q: And the viability, T/C [21]?
A: 0.16%

Q: What about the viability, T/C [22] of the same compound?
A: 0.11%

Q: And the viability, T/C [23]?
A: 0.17%

Q: And the viability, T/C [24]?
A: 0.07%

Q: And the viability, T/C [25]?
A: 0.14%

Q: What about the viability, T/C [26] of the same compound?
A: 0.16%

Q: And the viability, T/C [27]?
A: 0.2%

Q: What about the viability, T/C [28] of the same compound?
A: 0.19%

Q: And the viability, T/C [29]?
A: 0.74%

Q: And the viability, T/C [30]?
A: 0.26%

Q: And the viability, T/C [31]?
A: 0.34%

Q: And the viability, T/C [32]?
A: 0.17%

Q: What about the viability, T/C [33] of the same compound?
A: 0.54%

Q: What about the viability, T/C [34] of the same compound?
A: 0.22%

Q: What about the viability, T/C [35] of the same compound?
A: 0.8%

Q: And the viability, T/C [36]?
A: 2.02%
